The text below walks through data of PMC6395927, “Rufomycin Targets ClpC1 Proteolysis in Mycobacterium tuberculosis and M. abscessus” (Antimicrobial Agents and Chemotherapy, 2019).

The structures appear in SMILES notation. pIC50: −log10 of the molar value. Converted amounts (≈) assume the structure as drawn. “Also recorded” adds a separate entry of the source. Read-outs that look alike come from different tables or passages of the source.

Data set [1] relates to M. abscessus (ATCC 19977). The data set is described as follows: microbe, parasite or virus in culture. In kind it is cell-based, Mycobacterium abscessus. As to conditions: read-out: MIC.
The next data set deals with M. kansasii (ATCC 12478). Kind of data set: microbe, parasite or virus in culture. Format: cell-based. The settings on record: Mycobacterium kansasii, ATCC12478; M. kansasii; read-out: MIC.
Data set [2] has as its system J774A.1 macrophage (ATCC TIB-67). The data set is described as follows: Cytotoxicity in mammalian cells (resazurin). Format: cell-based, murine. As to conditions: Mus musculus, J774.A1; J774, 72 h. On the technique in general: Resazurin is reduced to fluorescent resorufin, in cell work by metabolically active cells.
The next data set addresses ClpC1/P1/P2 complex (Mycobacterium tuberculosis, UniProt P9WPC9). In kind it is biochemical, M. tuberculosis.
A further data set can be described thus: in vivo. More on the design: species or system BALB/c mice. As to conditions: mice, single i.v. 5 mg/kg. Here is the method:
Healthy female BALB/c mice were administered a single dose (5 mg/kg) of RUFI intravenously (i.v.; tail vein). RUFI was formulated using 10% ethanol (EtOH), 40% 10% (2-hydroxypropyl)-β-cyclodextrin (HP-β-CD) solution, and 50% PEG 400. RUFI was first dissolved in 0.102 ml of EtOH, vortexed and sonicated until clear, and then diluted with 0.508 ml of PEG 400 with additional vortex treatment and sonication until clear. Finally, 0.406 ml of 10% HP-β-CD was added to the solution. Then 20 μl of this formulation was pipetted into a 10-ml volumetric flask, and methanol (MeOH) was added to a final concentration of 1 mg/ml. The accuracy of the formulation concentration was verified via high-performance liquid chromatography-tandem mass spectrometry (HPLC-MS/MS) (AB Sciex 6500+; SCIEX, Framingham, MA) by electrospray using multiple reaction monitoring (MRM; 1065.63/1047.70) in positive ion mode. LC was performed with a Kinetex EVO C18 column (50 mm by 3.00 mm [inside diameter], 2.6-μm particle size, 100-Å pore size) using a gradient of 0.1% formic acid (FA) in water–0.1% FA in acetonitrile (ACN) (25% ACN to 95% ACN in 1.5 min) at a flow rate of 0.8 ml/min.
Blood samples (10 μl) were collected via saphenous vein puncture at 5, 15, and 30 min and 1, 2, 4, 8, and 25 h. […] A standard curve was determined by using RUFI spiked into untreated mouse plasma.

Chain of ClpC1/P1/P2 complex (P9WPC9 whole entry, one chain of several): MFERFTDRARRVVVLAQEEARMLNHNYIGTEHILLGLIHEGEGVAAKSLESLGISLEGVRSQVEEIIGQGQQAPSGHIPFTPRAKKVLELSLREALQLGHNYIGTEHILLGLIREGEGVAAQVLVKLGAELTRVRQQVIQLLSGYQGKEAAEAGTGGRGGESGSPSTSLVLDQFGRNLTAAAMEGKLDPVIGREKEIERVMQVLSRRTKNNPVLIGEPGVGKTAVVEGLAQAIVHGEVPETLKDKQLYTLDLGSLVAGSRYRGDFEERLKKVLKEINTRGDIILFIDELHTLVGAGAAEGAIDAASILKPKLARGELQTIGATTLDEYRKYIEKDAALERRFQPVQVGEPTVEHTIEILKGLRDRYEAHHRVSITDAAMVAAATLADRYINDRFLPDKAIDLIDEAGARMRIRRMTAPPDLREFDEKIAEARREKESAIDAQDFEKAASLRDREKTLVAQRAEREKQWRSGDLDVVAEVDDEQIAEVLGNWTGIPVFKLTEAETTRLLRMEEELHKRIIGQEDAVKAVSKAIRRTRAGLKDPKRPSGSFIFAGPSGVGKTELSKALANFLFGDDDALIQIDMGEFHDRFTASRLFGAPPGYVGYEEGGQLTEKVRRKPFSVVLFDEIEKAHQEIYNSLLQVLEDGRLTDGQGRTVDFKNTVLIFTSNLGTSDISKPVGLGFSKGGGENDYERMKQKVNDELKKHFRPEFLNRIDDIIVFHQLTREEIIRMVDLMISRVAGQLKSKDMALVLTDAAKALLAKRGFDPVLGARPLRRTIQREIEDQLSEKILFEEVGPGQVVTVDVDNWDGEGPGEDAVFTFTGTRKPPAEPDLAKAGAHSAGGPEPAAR

In general, pIC50 refers to −log10 of the IC50, conventionally taken in molar units. High values mean a low IC50, low ones a high IC50. Broadly, the half-life is the time needed for the level to fall by half in the phase considered. On to `C/C=C/C[C@@H]1NC(=O)[C@H](CC(C)C)N2C(=O)C(C[C@H](C)[C@H]2O)N(C)C(=O)[C@H](C)NC(=O)[C@H](Cc2ccc(O)c([N+](=O)[O-])c2)NC(=O)[C@H](CC(C)C)N(C)C(=O)[C@H](Cc2cn(C(C)(C)C3CO3)c3ccccc23)NC1=O` (stereo partly shown) [RUFI, rufomycin I], for which the MIC in data set [1] (M. abscessus) was determined as 0.42 µM (≈ 0.438 µg/mL); in data set [1] (Mycobacteroides abscessus, ATCC19977, M. abscessus), 0.4 µM (≈ 0.417 µg/mL); in the data set with M. kansasii (ATCC 12478), 0.04 µM (≈ 0.0417 µg/mL). Moreover, the pIC50 in data set [2] is 4.89. In addition, the “effect on proteolytic activity of ClpC1/P1/P2 (FITC-casein degradation)” value on ClpC1/P1/P2 complex is “significantly decreased the proteolytic capabilities; also recorded: strongly inhibited”. Further, in the data set “in vivo” (female, BALB/c, mouse, in vivo, iv, plasma, mean n = 3, read-out: terminal half-life (converted)), the half-life was 1 h. The clinical abnormalities result in “in vivo” is “no clinical abnormalities observed”.
